pIC50: −log10 of the molar value.

For the assay, the target named is T1, GST-RIPK1 (recombinant GST-RIPK1 kinase domain (residues 1-327)) (Homo sapiens, UniProt Q13546).
T1 construct: recombinant GST-RIPK1 kinase domain (residues 1-327) enzyme; made in house; host or cells: baculovirus-transfected Sf21 insect cells
T1 sequence (Q13546 1-327): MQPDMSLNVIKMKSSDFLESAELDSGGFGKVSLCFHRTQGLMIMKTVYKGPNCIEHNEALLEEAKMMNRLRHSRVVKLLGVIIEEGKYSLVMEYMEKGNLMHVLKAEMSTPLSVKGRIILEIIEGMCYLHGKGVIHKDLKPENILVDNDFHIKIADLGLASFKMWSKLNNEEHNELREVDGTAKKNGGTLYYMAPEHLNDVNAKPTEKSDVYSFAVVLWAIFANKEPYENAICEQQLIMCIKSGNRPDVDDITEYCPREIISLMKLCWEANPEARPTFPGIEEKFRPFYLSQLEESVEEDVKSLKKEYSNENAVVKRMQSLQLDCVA
The assay can be described thus: RIPK1-ADP-Glo enzymatic assay. It is filed as biochemical. As to conditions: 25 nM GST-RIPK1, 300 μM ATP, 3 μM dephosphorylated-MBP; 30 minutes pre-incubation, 150 minutes reaction; ten-point titration. The gist of the method:
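Ten-point 1:3 titrations from 100000 nM, 1% DMSO, were preincubated 30 min with 25 nM GST-RIPK1 (1-327) before starting with 300 μM ATP plus 3 μM dephosphorylated MBP; 150 min reaction. ADP-Glo luminescence measured ATP-to-ADP conversion; EC50 by four-parameter sigmoidal regression.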
In the case of `CC(F)(F)C(C)(C)C(=O)N1C[C@@H]2C[C@H]1c1cncnc1O2` [Compound 3-2, 1-((5S,8S)-7,8-dihydro-5,8-methanopyrimido[5,4-f][1,4]oxazepin-6(5H)-yl)-3,3-difluoro-2,2-dimethylbutan-1-one], the pIC50 is 5.92.

`O=C(N1C[C@@H]2C[C@H]1c1cncnc1O2)C12CCC(F)(CC1)C2` [Compound 3-3, ((5S,8S)-7,8-Dihydro-5,8-methanopyrimido[5,4-f][1,4]oxazepin-6(5H)-yl)(4-fluorobicyclo[2.2.1]heptan-1-yl)methanone]: the pIC50 is 6.42.

With `Cc1ncc2c(n1)O[C@H]1C[C@@H]2N(C(=O)C23CCC(F)(CC2)C3)C1` [Compound 3-4, (4-fluorobicyclo[2.2.1]heptan-1-yl)((5S,8S)-2-methyl-7,8-dihydro-5,8-methanopyrimido[5,4-f][1,4]oxazepin-6(5H)-yl)methanone], the pIC50 was 5.91.

In the case of `CC(C)(C(=O)N1C[C@@H]2C[C@H]1c1cncc(C#N)c1S2)C(F)F` [Compound 4-1, (2S,5S)-4-(3,3-difluoro-2,2-dimethylpropanoyl)-2,3,4,5-tetrahydro-2,5-methanopyrido[3,4-f][1,4]thiazepine-9-carbonitrile], the pIC50 was 7.62.

In the case of `N#Cc1cncc2c1S[C@H]1C[C@@H]2N(C(=O)C23CCC(C(F)(F)F)(CC2)C3)C1` [Compound 4-2, (2S,5S)-4-(4-(trifluoromethyl)bicyclo[2.2.1]heptane-1-carbonyl)-2,3,4,5-tetrahydro-2,5-methanopyrido[3,4-f][1,4]thiazepine-9-carbonitrile], the pIC50 was 7.82.

Regarding `N#Cc1cncc2c1S[C@H]1C[C@@H]2N(C(=O)C23CCC(F)(CC2)C3)C1` [Compound 4-3, (2S,5S)-4-(4-fluorobicyclo[2.2.1]heptane-1-carbonyl)-2,3,4,5-tetrahydro-2,5-methanopyrido[3,4-f][1,4]thiazepine-9-carbonitrile], the pIC50 is 7.92.

As to `CC(C)(CC#N)C(=O)N1C[C@@H]2C[C@H]1c1cncc(C#N)c1S2` [Compound 4-4, (2S,5S)-4-(3-cyano-2,2-dimethylpropanoyl)-2,3,4,5-tetrahydro-2,5-methanopyrido[3,4-f][1,4]thiazepine-9-carbonitrile], the pIC50 was 7.38.

`CC(C)(C#N)C(=O)N1C[C@@H]2C[C@H]1c1cncc(C#N)c1S2` [Compound 4-5, (2S,5S)-4-(2-cyano-2-methylpropanoyl)-2,3,4,5-tetrahydro-2,5-methanopyrido[3,4-f][1,4]thiazepine-9-carbonitrile]: the pIC50 was 7.00.

With `N#Cc1cncc2c1S[C@H]1C[C@@H]2N(C(=O)C2(C#N)CCC2)C1` [Compound 4-6, (2S,5S)-4-(1-cyanocyclobutane-1-carbonyl)-2,3,4,5-tetrahydro-2,5-methanopyrido[3,4-f][1,4]thiazepine-9-carbonitrile], the negative logarithm of the IC50 (pIC50) was 7.31.

Consider `N#Cc1cncc2c1S[C@H]1C[C@@H]2N(C(=O)C2(C#N)CCCC2)C1` [Compound 4-7, (2S,5S)-4-(1-cyanocyclopentane-1-carbonyl)-2,3,4,5-tetrahydro-2,5-methanopyrido[3,4-f][1,4]thiazepine-9-carbonitrile], for which the negative logarithm of the IC50 (pIC50) is 7.57.

For `C[C@]1(C(=O)N2C[C@@H]3C[C@H]2c2cncc(C#N)c2S3)C[C@H](C#N)C1` [Compound 4-8, (2S,5S)-4-((1r,3S)-3-cyano-1-methylcyclobutane-1-carbonyl)-2,3,4,5-tetrahydro-2,5-methanopyrido[3,4-f][1,4]thiazepine-9-carbonitrile], the pIC50 is 6.93.

Regarding `N#Cc1cncc2c1OC[C@H]1CC[C@@H]2N1C(=O)C12CCC(F)(CC1)C2` [Compound 5-1, (3R,6S)-11-(4-Fluorobicyclo[2.2.1]heptane-1-carbonyl)-3,4,5,6-tetrahydro-2H-3,6-epiminooxocino[3,2-c]pyridine-10-carbonitrile], the negative-log IC50 (pIC50) was 7.02.

On to `N#Cc1cncc2c1OC[C@H]1CC[C@@H]2N1C(=O)C12CCC(C(F)(F)F)(CC1)C2` [Compound 5-2, (3R,6S)-11-(4-(trifluoromethyl)bicyclo[2.2.1]heptane-1-carbonyl)-3,4,5,6-tetrahydro-2H-3,6-epiminooxocino[3,2-c]pyridine-10-carbonitrile], for which the pIC50 was 6.94.

Source of the values: patent publication US20240228506A1, “RIPK1 INHIBITORS AND METHODS OF USE” (Merck Sharp & Dohme LLC, priority 2021, published 2024).
